Experiments:
[1] = test system: peripheral neutrophils, white blood cells, platelets; assay: Combination dosing SNS-595 and Ara-C (Example 5): peripheral cytology; format: in vivo, nu/nu mice
Description: At various time points described in Table 5, mice were euthanized by CO2 asphyxiation in accordance to Institutional Animal Care and Use Committee (IACUC) guidelines. Blood was collected through cardiac tap and transferred to EDTA tubes. The analysis of murine blood CBC and differential counts for samples in these tubes was conducted (at Quality Clinical Labs, Moutainview). Statistical significance was determined by one-tailed student t-test, using Welch's correction for unequal variances.

[2] = test system: femoral bone marrow; assay: Combination dosing SNS-595 and Ara-C (Example 5): femoral bone marrow cellularity; format: in vivo, nu/nu mice
Description: Femurs were harvested for histological evaluation. The femur was placed in Streck fixative, paraffin embedded, sectioned, transferred to slides, and H&E stained (at BioPathology Sciences). Immunohistochemical slides were processed and analyzed for percent cellularity of intact bone marrow.

[3] = test system: bone marrow; assay: Monotherapy and combination with Ara-C (Example 6): bone marrow total cellularity; format: in vivo, Female CD-1 mice; details: for Total Cellularity (Avg) Exp #1: two days after completion of treatment
Description: Blood was analyzed at Quality Control Labs (Mountain View, Calif.) for complete blood count and differential count. Bone marrow smears from femurs on Day 6 and Day 12 were prepared and geimsa stained for differential counts. Femurs were also placed in Streck fixative, processed, sectioned and H&E stained. Femur and bone marrow smears were analyzed at BioPathology Sciences (South San Francisco, Calif.) for total cellularity and differential count. […] The compounds were administered on Day 0 and Day 4.

[4] = in vivo; details: CD-1, mouse
[5] = Combination dosing SNS-595 and Ara-C (Example 5): body weight changes
Description: The effects of dosing were studied on changes in body weight, peripheral cytology, and femoral bone marrow cellularity over time as described below.
Before beginning the study, all animals were allowed to acclimatize for 3 days from shipping related stress and the health of the mice was assessed daily by observation. Purified water (reverse osmosis) and irradiated food (PicoLab Rodent Diet 20, #5053; Dean's Animal Feeds, San Carlos, Calif.) were provided ad libitum, and the animals were kept on a 12 hour light and dark cycle.

[6] = Ara-C 20, 40 and 60 mg/kg tid q4d ×2
[7] = Group 5: Ara-C 20 mg/kg SC tid q4d × 2
[8] = Group 6: Ara-C 40 mg/kg SC tid q4d × 2
[9] = Group 7: Ara-C 60 mg/kg SC tid q4d × 2

Nc1ccn([C@@H]2O[C@H](CO)[C@@H](O)[C@@H]2O)c(=O)n1 [Ara-C, cytarabine]
day of nadir of number of neutrophils ([1]; Ara-C 20 mg/kg tid q4d ×2): 6 days | day of nadir of platelets ([1]; Ara-C 40 mg/kg tid q4d ×2): 8 days | number of white blood cells versus vehicle group ([1]; Ara-C 60 mg/kg, day 8): significantly lower than the vehicle group | circulating white blood cells, dose response [1, 6]: dose-dependent reduction | day of nadir of platelets ([1]; Ara-C 20 and 60 mg/kg tid q4d ×2): 6 days | day of nadir of number of neutrophils ([1]; Ara-C 40 and 60 mg/kg tid q4d ×2): 8 days | day by which neutrophils returned to normal levels ([1]; Ara-C all dose levels): ≤ 12 days | day by which platelets returned to normal levels ([1]; Ara-C all dose levels): ≤ 12 days | recovery of white blood cells ([1]; Ara-C all dose levels): failed to return to normal levels by day 18 | number of platelets versus vehicle group ([1]; Ara-C all dose levels, day 6 and day 8): significantly lower than the vehicle group | number of neutrophils versus vehicle group ([1]; Ara-C all dose levels, day 8): significantly lower than the vehicle group | reduction in cellularity ([2]; Ara-C 20 mg/kg SC three times a day, single agent): 12% | bone marrow cellularity, dose response ([2]; Ara-C single agent 20, 40, 60 mg/kg): No dose dependent reduction | total cellularity, femur cross section of representative animal ([2]; Day 6, Ara-C 20 mg/kg tid q4d ×2 SC, Animal #83): 90% | total cellularity, femur cross section of representative animal ([2]; Day 6, Ara-C 40 mg/kg tid q4d ×2 SC, Animal #103): 90% | total cellularity, femur cross section of representative animal ([2]; Day 6, Ara-C 60 mg/kg tid q4d ×2 SC, Animal #122): 50% | total cellularity, femur cross section of representative animal ([2]; Day 12, Ara-C 60 mg/kg tid q4d ×2 SC, Animal #134): 50% | Average Total Cellularity Day 6 [2, 7]: 88% | Average Total Cellularity Day 6 [2, 8]: 90% | Average Total Cellularity Day 6 [2, 9]: 58% | Average Total Cellularity Day 12 [2, 9]: 99% | Total Cellularity (Avg) Exp #2 ([3]; Ara-C 20 mg/kg tid q4d ×2): 92% | Total Cellularity (Avg) Exp #1 ([3]; Ara-C 20 mg/kg tid q4d × 2): 88% | Total Cellularity (Avg) Exp #2 ([3]; Ara-C 60 mg/kg tid q4d × 2): 54% | Total Cellularity (Avg) Exp #1 ([3]; Ara-C 60 mg/kg tid q4d × 2): 58% | MTD [4]: 60 mg/kg | day of maximum body weight loss [5, 6]: 7 days | maximum body weight loss [5, 6]: ≤ 2% | % of Body Wt Nadir [5, 7]: −0.3% | Day of Body Wt Nadir [5, 7]: 7 days | % of Body Wt Nadir [5, 8]: 0% | Day of Body Wt Nadir [5, 8]: 0 days | % of Body Wt Nadir [5, 9]: −1.7% | Day of Body Wt Nadir [5, 9]: 7 days

Source: patent US20080063642A1, “Methods of using (+)-1,4-dihydro-7-[(3S,4S)-3-methoxy-4-(methylamino)-1-pyrrolidinyl]-4-oxo-1-(2-thiazolyl)-1,8-naphthyridine-3-carboxylic acid for treatment of certain hematologic disorders” (priority 2006, published 2008)
